Test [1] concerns dihydrotestosterone secretion in TM3 cells. Description: Dihydrotestosterone secreted by TM3 cells (ELISA). The format is cell-based, mouse. Particulars: sildenafil 200 μg/mL, positive control in dihydrotestosterone test, FIG. 16. As to the method:
3. Dihydrotestosterone (DHT) Content
TM3 cells was cultured with the oyster peptide culture solution for 24 h, the obtained culture solution was centrifuged, a supernatant was taken and mixed uniformly, and the content of dihydrotestosterone was detected according to instructions of ELISA kit.
Operation procedure for detecting dihydrotestosterone: (1) Standards were added into standard wells at 50 μL/well. (2) 40 μL of sample diluent was added to sample wells and then 10 μL of the sample to be tested was added, and nothing was added to the blank wells. (3) The reaction wells were sealed with the plate-sealing film and incubated at 37° C. for 45 min. […] (10) A stop solution was added at 50 μL/well and mixed uniformly and then the OD450 value was measured.
Dihydrotestosterone is a steroid hormone secreted by testes and a main male hormone in the human body, is related to the development of male secondary sexual characteristics and plays an important role in maintaining normal sexual desire. In this test example, the oyster peptide culture solutions of Example 1 at different concentrations and the oyster peptide culture solutions of Examples 1-3 and Comparative Examples 1-4 at the same concentration were used to treat TM3 cells for 24 h, and then the supernatants of cells were collected, and the contents of dihydrotestosterone secreted by the cells were measured by the ELISA method. […]

Test [2] deals with NO content in TM3 cells. In words: NO content in TM3 cells (NO determination kit). It counts as cell-based, mouse. Particulars: sildenafil 200 μg/mL, vs control group (p<0.05), FIG. 18. The protocol: 4. Detection of NO Content
TM3 cells were cultured with the oyster peptide culture solution for 24 h, the obtained culture solution was centrifuged, a supernatant was taken and mixed uniformly, and the content of NO was detected according to instructions of NO determination kit.
Operation procedure for detecting NO: (1) Reagent preparation: all reagents were taken out and equilibrated to room temperature for use. (2) 100 μM standard working solution: 5 μL of concentrated standard was added to 495 μL of reaction buffer and mixed well. […] After the incubation was over, the microplate was taken out, placed into an incubator at 37° C. and further incubated for 60 min, and then taken out and placed into a microplate reader for reading at 540 nm. (5) Quantitative calculation of total nitric oxide in samples:
NO is a small fat-soluble molecule with unstable chemical properties and is produced by a catalyzed reaction of nitric oxide synthase in a body, and it can cause the expansion of blood vessels in the body. […] The effect of the oyster peptide on the NO content in TM3 cells was detected according to the instructions of NO determination kit. […]

As for `CCCc1nn(C)c2c(=O)[nH]c(-c3cc(S(=O)(=O)N4CCN(C)CC4)ccc3OCC)nc12` [sildenafil], the “dihydrotestosterone secreted by TM3 cells” value in test [1] was “significantly promoting”. Moreover, in test [2], the “NO content in TM3 cells” value is reported as “increased significantly”.

The values are drawn from US12389931B2, “Oyster peptide with effect of improving sexual function and preparation method thereof” (priority 2019, dated 2025).
